Test results taken from ChEMBL document CHEMBL1201862, “PubChem BioAssay data set” (2004).
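In this assay, cells in 96-well plates receive the compound at five concentrations for 48 hours. Endpoints are linearly interpolated between the surrounding concentrations. GI50 marks 50% less growth.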 Calls of active or inactive are those of the source. Rule as the data show it: active = GI50 up to about 1.1 µM and inactive = higher.

Legend:
Test in all cases: DTP human tumour cell line panel, 48 h
[1] = tested on: SNB-19
[2] = tested on: SF-539
[3] = tested on: SK-OV-3
[4] = tested on: K562
[5] = tested on: UACC-62
[6] = tested on: 786-0
[7] = tested on: LXFL 529
[8] = tested on: HOP-92
[9] = tested on: HCT-116
[10] = tested on: NCI-H23
[11] = tested on: DLD-1
[12] = tested on: SF-295
[13] = tested on: OVCAR-5
[14] = tested on: SNB-78
[15] = tested on: SR
[16] = tested on: EKVX
[17] = tested on: SK-MEL-2
[18] = tested on: MDA-MB-231
[19] = tested on: PC-3
[20] = tested on: MCF7

Measured: GI50

C/C(=N\NC(=S)NC(CCC(=O)O)C(=O)O)c1cnccn1 (stereo unspecified)
inactive: [1] > 100 µM | [2] > 100 µM | [3] > 100 µM | [4] > 100 µM | [5] > 100 µM | [6] > 100 µM | [7] > 100 µM | [8] > 100 µM | [9] > 100 µM | [10] > 100 µM | [11] > 100 µM | [12] > 100 µM | [13] > 100 µM | [14] > 100 µM | [15] > 100 µM | [16] > 100 µM | [17] > 100 µM

Cc1ccc(S(=O)(=O)N/N=C(\CCN2CCCC2)CC(c2ccccc2)c2c(O)c3ccccc3oc2=O)cc1 (stereo unspecified)
inactive: [1] > 100 µM | [2] > 100 µM | [3] > 100 µM | [4] 88.9 µM | [5] > 100 µM | [6] > 100 µM | [7] > 100 µM | [8] 72.3 µM | [9] > 100 µM | [10] > 100 µM | [11] > 100 µM | [12] > 100 µM | [13] > 100 µM | [14] > 100 µM | [15] > 100 µM | [16] > 100 µM | [17] > 100 µM

C=CCN1C(=O)C/C(=C2/CCC(=O)N2CC=C)C1=O
inactive: [1] > 100 µM | [2] > 100 µM | [3] > 100 µM | [4] > 100 µM | [5] > 100 µM | [6] > 100 µM | [7] > 100 µM | [8] > 100 µM | [9] > 100 µM | [10] > 100 µM | [11] > 100 µM | [12] > 100 µM | [13] > 100 µM | [14] > 100 µM | [15] > 100 µM | [16] > 100 µM | [17] > 100 µM

O=C1C(=O)N(c2cccc(C(F)(F)F)c2)C(=O)C(=O)C1c1nc2ccccc2s1
inactive: [1] > 100 µM | [2] > 100 µM | [3] > 100 µM | [4] 51.2 µM | [5] > 100 µM | [18] 73.6 µM | [6] 72.3 µM | [19] > 100 µM | [7] 52 µM | [8] > 100 µM | [9] 43.8 µM | [10] > 59.7 µM | [11] 74.3 µM | [20] 45.1 µM | [12] 65.3 µM | [13] > 100 µM | [14] > 100 µM | [15] 36.3 µM | [16] > 100 µM | [17] > 100 µM

CSc1nc(NC2OC(COC(C)=O)C(OC(C)=O)C(OC(C)=O)C2OC(C)=O)c(/N=C\C=N/c2c(NC3OC(COC(C)=O)C(OC(C)=O)C(OC(C)=O)C3OC(C)=O)nc(SC)n(C)c2=O)c(=O)n1C (stereo unspecified)
inactive: [1] 38.6 µM | [2] 38 µM | [3] 36.1 µM | [4] > 100 µM | [5] > 94.8 µM | [18] 49.3 µM | [6] 34 µM | [19] > 100 µM | [7] > 100 µM | [8] 25.9 µM | [9] > 100 µM | [10] > 70 µM | [11] > 100 µM | [20] > 100 µM | [12] 33.3 µM | [13] > 100 µM | [14] 31.7 µM | [15] > 100 µM | [16] > 100 µM | [17] 32.7 µM
